Measured values as given in US20210253557A1, “SUBSTITUTED TRIAZOLE DERIVATIVES AND USES THEREOF” (Bayer Pharma Aktiengesellschaft, priority 2017, published 2021).

Tests used:
human V1a receptor = target: T1, human V1a receptor (Homo sapiens, UniProt P37288); experiment: Cellular in vitro assay for determining vasopressin receptor activity (V1a, aequorin luminescence); assay type: cell-based
T1 construct: expressed in transfected cells; host or cells: CHO K1 (ATCC), also stably transfected with a modified aequorin
T1 sequence (P37288 whole entry): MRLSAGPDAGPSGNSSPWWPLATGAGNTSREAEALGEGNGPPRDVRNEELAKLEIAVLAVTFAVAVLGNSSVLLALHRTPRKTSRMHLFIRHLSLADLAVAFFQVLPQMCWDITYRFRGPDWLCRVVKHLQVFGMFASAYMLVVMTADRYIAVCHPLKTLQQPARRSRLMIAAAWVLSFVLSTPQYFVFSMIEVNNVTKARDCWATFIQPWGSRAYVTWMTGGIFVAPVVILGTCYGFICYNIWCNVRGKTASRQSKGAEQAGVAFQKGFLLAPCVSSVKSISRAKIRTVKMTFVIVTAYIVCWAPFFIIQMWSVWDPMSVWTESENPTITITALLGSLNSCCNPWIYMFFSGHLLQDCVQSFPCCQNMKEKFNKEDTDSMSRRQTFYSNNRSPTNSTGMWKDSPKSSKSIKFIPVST

human V2 receptor = target: T2, human V2 receptor (Homo sapiens, UniProt P30518); experiment: Cellular in vitro assay for determining vasopressin receptor activity (V2, CRE-luciferase); assay type: cell-based; conditions: CHO cell line transfected with the human V2 receptor; [Arg8]-vasopressin at EC50 concentration; read-out: IC50 hV2
T2 construct: expressed in transfected cells; host or cells: CHO K1 (ATCC) expressing firefly luciferase under a CRE-responsive promoter
T2 sequence (P30518 whole entry): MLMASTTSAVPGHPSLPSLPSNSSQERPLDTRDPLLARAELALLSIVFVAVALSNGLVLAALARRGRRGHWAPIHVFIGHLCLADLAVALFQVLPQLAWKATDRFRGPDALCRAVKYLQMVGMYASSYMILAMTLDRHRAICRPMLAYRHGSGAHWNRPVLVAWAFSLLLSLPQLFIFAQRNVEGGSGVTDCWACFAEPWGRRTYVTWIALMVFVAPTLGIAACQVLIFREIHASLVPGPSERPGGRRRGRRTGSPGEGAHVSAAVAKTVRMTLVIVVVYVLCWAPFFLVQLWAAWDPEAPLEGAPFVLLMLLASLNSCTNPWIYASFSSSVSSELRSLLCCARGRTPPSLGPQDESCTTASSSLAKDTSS
Outline: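 Antagonism was measured as inhibition of a 3-h, EC50-level [Arg8]-vasopressin stimulation, with compounds tested at several concentrations, yielding IC50 values. The read-out was cAMP-driven CRE-luciferase luminescence after lysis, in recombinant CHO K1 cells carrying human V2 receptor. Cells were seeded in 2% FCS DMEM/F12 one day earlier.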

With O=C1CC[C@@H](c2nc(Cn3nc(-c4ccc(Cl)cc4)n(C[C@H](O)C(F)(F)F)c3=O)nn2-c2cnccc2Cl)N1 [Example 123, 5-(4-Chlorophenyl)-2-({1-(4-chloropyridin-3-yl)-5-[(2S)-5-oxopyrrolidin-2-yl]-1H-1,2,4-triazol-3-yl}methyl)-4-[(2S)-3,3,3-trifluoro-2-hydroxypropyl]-2,4-dihydro-3H-1,2,4-triazol-3-one] the IC50 (human V1a receptor; CHO cell line transfected with the human V1a receptor, [Arg8]-vasopressin at EC50 concentration, read-out: IC50 hV1a) was 1.1 nM, the “ratio IC50 hV2/hV1a” value (human V1a receptor; selectivity ratio of IC50 hV2 to IC50 hV1a) was 31.5 and the IC50 (human V2 receptor) was 34.5 nM.
